Experimental data taken from US12622941B2, “Anticoccidial composition comprising ginkgo leaves and use thereof” (CJ CHEILJEDANG CORPORATION, priority 2020, dated 2026).

Tests used:
Eimeria acervulina [1] = assay: Eimeria acervulina sporozoite death rate by component of ginkgo leaf powder; type: cell-based
Experimental: (§1) A certain amount of oocysts of each protozoan was put in a tube containing glass beads and pulverized, and then to remove the crushed oocyst cell wall and other debris, internal sporocysts were purified using the percoll density gradient, and washed with PBS solution. A reagent comprising sodium taurocholic acid (Sigma aldrich, USA) and trypsin (Gibco, USA), respectively, was treated to sporocysts of Eimeria tenella, Eimeria acervulina and Eimeria maxima for excystation and they were incubated, and then they were washed with PBS solution once and protozoa were obtained.

Eimeria tenella [2] = assay: Intracellular propagation inhibition of Eimeria tenella protozoa in MDBK cells (ITS-1 PCR); type: cell-based; details: read-out: Intracellular protozoal propagation inhibitory effect (%)
Experimental: 100,000 MDBK cells (purchased from ATCC) were aliquoted in a 24-well plate, and then incubated at a temperature of 37° C. for 12 hours. The protozoan of Eimeria tenella was obtained similar to the method of Example 2 above. […] A negative control group is a MDBK cell infected by protozoa, and a positive control group means a group in which salinomycin and diclazuril solution was incubated with the Eimeria tenella protozoan. After removing the cells and protozoa inside the cells through pipetting, DNA was extracted from the cells, and PCR was performed using E. tenella ITS-1 (Internal transcribed spacer-1) gene-specific primers. The sequences of the used primers were described in Table 10 above.
Ct values before/after washing for each material were compared to calculate the cell invasion inhibition rate (%) of the protozoa and the intracellular protozoan propagation inhibition rate (%) through treatment of the material, and the result was shown in FIG. 2 and Table 11 below.

Eimeria tenella [3] = assay: Cell invasion inhibition of Eimeria tenella protozoa in MDBK cells (ITS-1 PCR); type: cell-based; details: read-out: Cell invasion inhibitory effect of protozoan (%)
Experimental: 100,000 MDBK cells (purchased from ATCC) were aliquoted in a 24-well plate, and then incubated at a temperature of 37° C. for 12 hours. […] After removing the cells and protozoa inside the cells through pipetting, DNA was extracted from the cells, and PCR was performed using E. tenella ITS-1 (Internal transcribed spacer-1) gene-specific primers. The sequences of the used primers were described in Table 10 below. Ct values before/after washing for each material were compared and corrected with the ΔCt value of the negative control group to calculate the cell invasion inhibition rate (%) of the protozoa through treatment of each material, and the result was shown in FIG. 2 and Table 11 below.

Eimeria acervulina [4] = assay: Direct killing of protozoa (sporozoites), Eimeria acervulina; type: cell-based; details: tested 1 to 500 ppm, vs PBS control
Experimental: (§2) In the present example, protozoan (sporozoite) direct killing ability evaluation was conducted against 3 representative Eimeria kinds known to be infected in most farms (E. tenella, E. acervulina, E. maxima).
as §1

Eimeria maxima = assay: Direct killing of protozoa (sporozoites), Eimeria maxima; type: cell-based; details: tested 1 to 500 ppm, vs PBS control
Experimental: as §2, §1

Eimeria tenella [5] = assay: In vivo anticoccidial efficacy in broilers after Eimeria tenella challenge inoculation; details: in feed: salinomycin 60 ppm, diclazuril 1 ppm, ginkgo leaf powder 125 ppm; for Anticoccidial index (ACI): Equation 2, out of 200 points; for Lesion index: appendix lesion score x 10; for ADG after challenge inoculation / Survival rate (%): broilers; for ADG after challenge inoculation: before to 7th day after challenge; for Survival rate (%): up to 8th day after challenge; for Oocyst index: from oocyst excretion % of infected negative control; for Daily weight gain compared to negative control group (RWG, %): relative to non-infected negative control; for Appendix lesion score: scale 0-4, 8th day after challenge
Experimental: An in vivo anticoccidial efficacy evaluation test was performed in an animal experiment facility in Gyeongsangnam-do, South Korea. One-day-old female Ross broilers were individually weighed and randomly divided into groups to use in an experiment. Matters and conditions for experimental design were described in Table 2.
For the feed, Korea Feed A1-choi product was used, and each material diclazuril (Yuhan Corporation YUHAN DICLA product), salinomycin (Cheil Bio Cheilsalino-60 product), gallic acid (Sigma product), the ginkgo leaf product prepared in Example 1-2) was added to the feed, respectively, at a concentration described in Table 3 below to be self-mixed. Antibiotics and supplements were not used in general feed and mixed feed, and no anticoccidial agent other than each material was added. Broilers were fed ad libitum throughout the experiment period. After putting 30 1-day-age broilers in cages randomly placed for each of the control group or test group and breeding, general feed (A1-choi product) was fed for 7 days, and then the mixed feed prepared above was ingested by dividing by control group or test group.
The feed formulation administered to the control group (negative control group or positive control group) and test group and whether coccidiosis was induced by Eimeria tenella were described in Table 3 below.
14-day-old broilers were orally inoculated (challenge inoculation) with 10,000 oocysts (over 90% sporulated Eimeria tenella oocysts) per individual to induce coccidiosis.
The anticoccidial efficacy by test group designed in Example 1-3 above was shown as an anticoccidial index (ACI), and the anticoccidial index was calculated by Equation 2 below. The ACI score is out of 200 points, and the higher the ACI score, the more excellent the anticoccidial ability, and when it is 120 points or more to less than 140 points, it is determined that it is effective as an anticoccidial material, and when it is 140 points or more to less than 160 points, it is determined that it is excellent as an anticoccidial material, and when it is 160 points or more, it is determined that the anticoccidial effect is very excellent (Luis Miguel De Pablos et al., Anticoccidial activity of maslinic acid against infection with Eimeria tenella in chickens, Parasitol Res, 2010). Anticoccidial index(ACI)=(survival rate after challenge inoculation (%))+(daily weight gain compared to negative control group(RWG,%))−(lesion score×10)−(fecal oocyst excretion amount index)(Equation 2) • 1) Survival rate: the number of dead individuals was recorded daily, and post mortem autopsy was performed to determine a cause of mortality, and the number of individuals who died due to causes other than coccidiosis was excluded. The survival rate (%) up to the 8th day after challenge inoculation was used for anticoccidial index calculation.
• 3) Lesion scoring: On the 8th day after challenge inoculation, an autopsy was conducted for 4 broilers per cage, and the intestines were incised and opened. Scoring was performed for each coccidial lesion in the appendix region of the broilers. The lesion scoring method was performed by referring to Johnson J K & Reid W M (1970) document (Joyce Johnson, W. Malcolm Reid, Anticoccidial drugs: Lesion scoring techniques in battery and floor-pen experiments with chickens, Experimental parasitology, 1970). The lesion score is on a scale of 0-4, and 0 point corresponds to normal appendix, and 1 point is a mild infection symptom, and 2 points is a moderate infection symptom, and 3 points is a severe infection symptom and 4 points is a case of showing a very severe infection symptom or causing death. A lesion index was calculated by multiplying the measured appendix lesion score by 10, and this was used for anticoccidial index calculation.
• 4) Fecal oocyst excretion amount: the entire feces on the 6˜8th day of challenge inoculation were collected by cage, mixed evenly, and then randomly sampled 3 times in total by 1 g each. […]

Eimeria tenella [6] = assay: Direct killing of protozoa (sporozoites), Eimeria tenella; type: cell-based; details: tested 1 to 500 ppm, vs PBS control
Experimental: as §2, §1

SMILES | Eimeria acervulina sporozoite death rate (%) (Eimeria acervulina [1]; 8 ppm) | Eimeria acervulina sporozoite death rate (%) (Eimeria acervulina [1]; 16 ppm) | Eimeria acervulina sporozoite death rate (%) (Eimeria acervulina [1]; 31 ppm) | Eimeria acervulina sporozoite death rate (%) (Eimeria acervulina [1]; 63 ppm) | Eimeria acervulina sporozoite death rate (%) (Eimeria acervulina [1]; 125 ppm) | Eimeria acervulina sporozoite death rate (%) (Eimeria acervulina [1]; 250 ppm) | Eimeria acervulina sporozoite death rate (%) (Eimeria acervulina [1]; 500 ppm) | Minimum concentration for killing 50% protozoa (sporozoites) (ppm) (Eimeria acervulina [4]) | Minimum concentration for killing 50% protozoa (sporozoites) (ppm) (Eimeria maxima) | Anticoccidial index (ACI) (Eimeria tenella [5]) | Lesion index (Eimeria tenella [5]) | ADG after challenge inoculation (Eimeria tenella [5]) [g/day] | Survival rate (%) (Eimeria tenella [5]) | Oocyst index (Eimeria tenella [5]) | Daily weight gain compared to negative control group (RWG, %) (Eimeria tenella [5]) [%] | Appendix lesion score (Eimeria tenella [5]) | Minimum concentration for killing 50% protozoa (sporozoites) (ppm) (Eimeria tenella [6]) | further results
CC(C)(C)C1(O)CC2OC(=O)CC23C(=O)OC2OC(=O)C(O)C231 (stereo not drawn) [Bilobalide] | 0 | 0 | 0 | 8 | 14 | 41 | 51 | – | – | – | – | – | – | – | – | – | – | –
CC[C@@H](C(=O)[C@@H](C)[C@@H](O)[C@H](C)[C@@H]1O[C@@H]([C@@H](CC)C(=O)O)CC[C@@H]1C)[C@H]1O[C@]2(C=C[C@@H](O)[C@]3(CC[C@@](C)([C@H]4CC[C@](O)(CC)[C@H](C)O4)O3)O2)[C@H](C)C[C@@H]1C [Salinomycin, salinomycin] | – | – | – | – | – | – | – | 100 | 250 | 141 | 27 | 62 | 93 | 20 | 94 | 2.7 | 125 | inhibition at 5 ppm (Eimeria tenella [2]; MDBK): 32.2%; inhibition at 10 ppm (Eimeria tenella [2]; MDBK): 34.8%; inhibition at 5 ppm (Eimeria tenella [3]; MDBK, 24 h): 50.1%; inhibition at 10 ppm (Eimeria tenella [3]; MDBK, 24 h): 56.4%
O=C(O)c1cc(O)c(O)c(O)c1 [Gallic acid, gallic acid] | – | – | – | – | – | – | – | >500 | >500 | – | – | – | – | – | – | – | >500 | inhibition at 5 ppm (Eimeria tenella [2]; 5 ppm, MDBK cells): 0%; inhibition at 10 ppm (Eimeria tenella [2]; 10 ppm, MDBK cells): 0%; inhibition at 5 ppm (Eimeria tenella [3]; 5 ppm, MDBK cells, 24 hours): 76%; inhibition at 10 ppm (Eimeria tenella [3]; 10 ppm, MDBK cells, 24 hours): 90.1%; Minimum concentration for killing 50% protozoa (sporozoites) (ppm) (Eimeria tenella [6]; listed as gallic acid): > 500 ppm
N#CC(c1ccc(Cl)cc1)c1c(Cl)cc(-n2ncc(=O)[nH]c2=O)cc1Cl (stereo not drawn) [Diclazuril, diclazuril] | – | – | – | – | – | – | – | >500 | >500 | 148 | 29 | 62 | 97 | 10 | 93 | 2.88 | 500 | inhibition at 0.5 ppm (Eimeria tenella [2]; 0.5 ppm, MDBK cells): 45.9%; inhibition at 1 ppm (Eimeria tenella [2]; 1 ppm, MDBK cells): 52.9%; inhibition at 0.5 ppm (Eimeria tenella [3]; 0.5 ppm, MDBK cells, 24 hours): 0%; inhibition at 1 ppm (Eimeria tenella [3]; 1 ppm, MDBK cells, 24 hours): 6.3%
O=c1c(O)c(-c2ccc(O)c(O)c2)oc2cc(O)cc(O)c12 [Quercetin] | 0 | 0 | 0 | 8 | 34 | 47 | 68 | – | – | – | – | – | – | – | – | – | – | –
O=c1c(O)c(-c2ccc(O)cc2)oc2cc(O)cc(O)c12 [Kaempferol] | 0 | 0 | 0 | 0 | 1 | 27 | 54 | – | – | – | – | – | – | – | – | – | – | –
